# Read-outs that look alike come from different tables or passages of the source.
# Columns and labels:
# P110 δ/Pi3K δ = P110 δ/Pi3K δ (Homo sapiens, UniProt O00329); experiment: Fluorescent (HTRF) determination of PI3K enzyme activity, δ isoform; type: biochemical; set-up: inhibition: dose or concentration left out as unconfirmed
# Summary of the method: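 HTRF kit detecting PIP3 formed from PIP2 by human PI3Kδ, at room temperature. Reaction started with 400 μM ATP (addition concentration) for 30 min, then stopped, and detection mix incubated 6–18 h in the dark. Percent inhibition taken against blank and enzyme controls, and IC50 fitted.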
# [1] = read-out: P110 δ/Pi3K δ IC 50 nM
# Sequence of P110 δ/Pi3K δ (O00329 whole entry, canonical isoform): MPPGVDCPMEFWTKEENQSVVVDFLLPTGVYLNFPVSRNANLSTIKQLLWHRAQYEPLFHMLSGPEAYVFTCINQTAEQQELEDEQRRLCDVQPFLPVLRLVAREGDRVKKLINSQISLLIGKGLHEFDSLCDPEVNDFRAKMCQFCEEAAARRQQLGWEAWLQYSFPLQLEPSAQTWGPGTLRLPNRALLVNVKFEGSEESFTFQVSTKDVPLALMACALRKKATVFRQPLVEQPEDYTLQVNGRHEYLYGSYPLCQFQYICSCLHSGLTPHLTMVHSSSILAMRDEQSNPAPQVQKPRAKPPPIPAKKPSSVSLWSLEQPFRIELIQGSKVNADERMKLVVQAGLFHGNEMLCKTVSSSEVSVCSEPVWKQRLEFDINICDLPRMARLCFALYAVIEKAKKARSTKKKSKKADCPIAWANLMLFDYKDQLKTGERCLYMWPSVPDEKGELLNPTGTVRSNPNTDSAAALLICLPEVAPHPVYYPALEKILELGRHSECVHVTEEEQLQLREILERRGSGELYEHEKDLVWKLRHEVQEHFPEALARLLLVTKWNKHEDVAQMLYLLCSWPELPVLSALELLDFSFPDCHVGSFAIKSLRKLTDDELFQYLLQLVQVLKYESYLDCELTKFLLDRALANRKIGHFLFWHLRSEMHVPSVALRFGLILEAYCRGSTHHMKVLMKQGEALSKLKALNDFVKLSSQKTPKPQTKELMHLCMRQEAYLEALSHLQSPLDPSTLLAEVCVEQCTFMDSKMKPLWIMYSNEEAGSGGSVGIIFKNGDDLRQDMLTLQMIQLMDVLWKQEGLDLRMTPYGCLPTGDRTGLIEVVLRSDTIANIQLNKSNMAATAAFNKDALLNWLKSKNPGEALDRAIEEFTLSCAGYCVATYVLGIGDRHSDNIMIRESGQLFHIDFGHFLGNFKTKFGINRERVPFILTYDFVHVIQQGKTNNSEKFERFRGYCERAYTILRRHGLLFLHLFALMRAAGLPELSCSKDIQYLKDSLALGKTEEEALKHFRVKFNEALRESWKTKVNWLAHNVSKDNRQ
# Sequence of P110 δ/Pi3K δ (P27986 whole entry partner, canonical isoform): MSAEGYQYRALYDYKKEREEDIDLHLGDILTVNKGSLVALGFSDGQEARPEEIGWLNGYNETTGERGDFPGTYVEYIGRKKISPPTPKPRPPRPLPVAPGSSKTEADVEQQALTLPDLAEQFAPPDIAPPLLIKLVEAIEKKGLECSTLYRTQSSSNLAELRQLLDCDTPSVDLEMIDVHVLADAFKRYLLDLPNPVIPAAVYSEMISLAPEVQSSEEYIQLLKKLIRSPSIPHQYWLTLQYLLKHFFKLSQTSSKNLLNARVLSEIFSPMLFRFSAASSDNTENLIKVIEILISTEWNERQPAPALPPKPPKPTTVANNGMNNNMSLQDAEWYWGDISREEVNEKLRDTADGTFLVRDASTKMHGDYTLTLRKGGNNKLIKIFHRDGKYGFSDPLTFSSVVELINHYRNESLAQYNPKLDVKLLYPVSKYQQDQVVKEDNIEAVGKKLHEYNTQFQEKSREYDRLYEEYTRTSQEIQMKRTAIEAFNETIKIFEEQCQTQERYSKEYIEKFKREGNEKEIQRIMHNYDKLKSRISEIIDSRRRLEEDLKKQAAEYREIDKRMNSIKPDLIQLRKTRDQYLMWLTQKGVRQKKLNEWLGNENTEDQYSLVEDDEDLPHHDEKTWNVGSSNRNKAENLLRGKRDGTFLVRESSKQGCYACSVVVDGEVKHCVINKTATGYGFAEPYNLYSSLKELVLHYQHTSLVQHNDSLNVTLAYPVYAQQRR
Compound,melting point,inhibition (P110 δ/Pi3K δ),IC50 (P110 δ/Pi3K δ; read-out: P110 δ/ Pi3K δ IC 50 nM),inhibition at 1 µM (P110 δ/Pi3K δ),IC50 (P110 δ/Pi3K δ; [1])
"CC(c1oc2ccccc2c(=O)c1-c1cccc(F)c1)n1nc(-c2ccc(Cl)c(O)c2)c2c(N)ncnc21 (stereo not drawn) [Example 95a, 2-(1-(4-amino-3-(4-chloro-3-hydroxyphenyl)-1H-pyrazolo[3,4-d]pyrimidin-1-yl)ethyl)-3-(3-fluorophenyl)-4H-chromen-4-one]",134 to 136 °C,50 to 100%,< 250 nM,,
"Cc1c[nH]c2ccc(-c3nn(C(C)c4oc5ccccc5c(=O)c4-c4cccc(F)c4)c4ncnc(N)c34)cc12 (stereo not drawn) [Example 101, 2-(1-(4-Amino-3-(3-methyl-1H-indol-5-yl)-1H-pyrazolo[3,4-d]pyrimidin-1-yl)ethyl)-3-(3-fluorophenyl)-4H-chromen-4-one]",171 to 173 °C,< 50%,,,
"CC(c1oc2ccc(F)cc2c(=O)c1-c1cccc(F)c1)n1nc(-c2cccc(O)c2)c2c(N)ncnc21 (stereo not drawn) [Example 121a, 2-(1-(4-amino-3-(3-hydroxyphenyl)-1H-pyrazolo[3,4-d]pyrimidin-1-yl)ethyl)-6-fluoro-3-(3-fluorophenyl)-4H-chromen-4-one]",193 to 196 °C,50 to 100%,,,
"C[C@H](Nc1ncnc2[nH]cnc12)c1oc2ccccc2c(=O)c1-c1ccccc1 [Example 73, (S)-2-(1-(9H-purin-6-ylamino)ethyl)-3-phenyl-4H-chromen-4-one]",135 to 138 °C,,,50 to 100%,
"CC(c1oc2ccccc2c(=O)c1-c1cccc(F)c1)n1nc(-c2cnc(N)nc2)c2c(N)ncnc21 (stereo not drawn) [Example 93, 2-(1-(4-amino-3-(2-aminopyrimidin-5-yl)-1H-pyrazolo[3,4-d]pyrimidin-1-yl)ethyl)-3-(3-fluorophenyl)-4H-chromen-4-one]",264 to 268 °C,50 to 100%,,,
"CC(c1oc2ccccc2c(=O)c1-c1cccc(F)c1)n1nc(-c2cc(O)cc(F)c2)c2c(N)ncnc21 (stereo not drawn) [Example 76a, 2-(1-(4-amino-3-(3-fluoro-5-hydroxyphenyl)-1H-pyrazolo[3,4-d]pyrimidin-1-yl)ethyl)-3-(3-fluorophenyl)-4H-chromen-4-one]",271 to 273 °C,,,50 to 100%,
"COc1cccc(-c2nn(C(C)c3oc4ccccc4c(=O)c3-c3ccccc3)c3ncnc(N)c23)c1 (stereo not drawn) [Example 41, 2-(1-(4-Amino-3-(3-methoxyphenyl)-1H-pyrazolo[3,4-d]pyrimidin-1-yl)ethyl)-3-phenyl-4H-chromen-4-one]",176 to 178 °C,,,50 to 100%,
"CC(c1oc2ccc(F)cc2c(=O)c1-c1ccccc1)n1cnc2c(N)ncnc21 (stereo not drawn) [Example 40, 2-(1-(6-Amino-9H-purin-9-yl)ethyl)-6-fluoro-3-phenyl-4H-chromen-4-one]",264 to 269 °C,,,50 to 100%,
"CC(c1oc2ccccc2c(=O)c1-c1cccc(F)c1)n1nc(-c2ccc3cc[nH]c3c2)c2c(N)ncnc21 (stereo not drawn) [Example 94, 2-(1-(4-amino-3-(1H-indol-6-yl)-1H-pyrazolo[3,4-d]pyrimidin-1-yl)ethyl)-3-(3-fluorophenyl)-4H-chromen-4-one]",222 to 225 °C,50 to 100%,,,
"CC(c1oc2ccccc2c(=O)c1-c1cccc(F)c1)n1nc(-c2cc(O)ccc2Cl)c2c(N)ncnc21 (stereo not drawn) [Example 96a, 2-(1-(4-amino-3-(2-chloro-5-hydroxyphenyl)-1H-pyrazolo[3,4-d]pyrimidin-1-yl)ethyl)-3-(3-fluorophenyl)-4H-chromen-4-one]",192 to 195 °C,50 to 100%,,,
"COc1ccc(-c2nn(C(C)c3oc4ccccc4c(=O)c3-c3cccc(F)c3)c3ncnc(N)c23)cc1OC (stereo not drawn) [Example 97, 2-(1-(4-amino-3-(3,4-dimethoxyphenyl)-1H-pyrazolo[3,4-d]pyrimidin-1-yl)ethyl)-3-(3-fluorophenyl)-4H-chromen-4-one]",232 to 235 °C,50 to 100%,,,
"CC(c1oc2ccccc2c(=O)c1-c1cccc(F)c1)n1nc(-c2ccc3[nH]ccc3c2)c2c(N)ncnc21 (stereo not drawn) [Example 100, 2-(1-(4-amino-3-(1H-indol-5-yl)-1H-pyrazolo[3,4-d]pyrimidin-1-yl)ethyl)-3-(3-fluorophenyl)-4H-chromen-4-one]",197 to 199 °C,50 to 100%,,,
"CC(c1oc2ccc(F)cc2c(=O)c1-c1ccccc1F)n1cnc2c(N)ncnc21 (stereo not drawn) [Example 48, 2-(1-(6-amino-9H-purin-9-yl)ethyl)-6-fluoro-3-(2-fluorophenyl)-4H-chromen-4-one]",245 to 248 °C,,,< 50%,
"Cc1c2ccc(-c3nn(C(C)c4oc5ccccc5c(=O)c4-c4cccc(F)c4)c4ncnc(N)c34)cc2nn1C (stereo not drawn) [Example 171, 2-(1-(4-amino-3-(2,3-dimethyl-2H-indazol-6-yl)-1H-pyrazolo[3,4-d]pyrimidin-1-yl)ethyl)-3-(3-fluorophenyl)-4H-chromen-4-one]",269 to 274 °C,< 50%,,,
"Cc1n[nH]c(C)c1-c1nn(C(C)c2oc3ccccc3c(=O)c2-c2cccc(F)c2)c2ncnc(N)c12 (stereo not drawn) [Example 78, 2-(1-(4-amino-3-(3,5-dimethyl-1H-pyrazol-4-yl)-1H-pyrazolo[3,4-d]pyrimidin-1-yl)ethyl)-3-(3-fluorophenyl)-4H-chromen-4-one]",240 to 243 °C,< 50%,,,

# The next lines start with the values.
melting point,inhibition (P110 δ/Pi3K δ),IC50 (P110 δ/Pi3K δ; read-out: P110 δ/ Pi3K δ IC 50 nM),inhibition at 1 µM (P110 δ/Pi3K δ),IC50 (P110 δ/Pi3K δ; [1]),Compound
186 to 191 °C,,,< 50%,,"O=c1c(-c2ccccc2)c(Cn2cnc3ccccc32)oc2ccccc12 [Example 7, 2-[(1H-benzo[d]imidazol-1-yl)methyl]-3-phenyl-4H-chromen-4-one]"
104 to 106 °C,< 50%,,,,"CC(c1oc2ccccc2c(=O)c1-c1cccc(F)c1)n1nc(-c2cccc(C(=O)N3CCOCC3)c2)c2c(N)ncnc21 (stereo not drawn) [Example 177, 2-(1-(4-amino-3-(3-(morpholine-4-carbonyl)phenyl)-1H-pyrazolo[3,4-d]pyrimidin-1-yl)ethyl)-3-(3-fluorophenyl)-4H-chromen-4-one]"
115 to 117 °C,,,< 50%,,"COc1cc(F)cc(-c2nn(Cc3oc4ccccc4c(=O)c3-c3cccc(F)c3)c3ncnc(N)c23)c1 [Example 67, 2-((4-amino-3-(3-fluoro-5-methoxyphenyl)-1H-pyrazolo[3,4-d]pyrimidin-1-yl)methyl)-3-(3-fluorophenyl)-4H-chromen-4-one]"
266 to 272 °C,,,< 50%,,"CCC(c1oc2ccc(F)cc2c(=O)c1-c1ccccc1)n1cnc2c(N)ncnc21 (stereo not drawn) [Example 38, 2-(1-(6-amino-9H-purin-9-yl)propyl)-6-fluoro-3-phenyl-4H-chromen-4-one]"
171 to 173 °C,,,50 to 100%,250 to 500 nM,"Nc1ncnc2c1c(C#CCO)nn2Cc1oc2ccccc2c(=O)c1-c1ccccc1 [Example 59, 2-((4-amino-3-(3-hydroxyprop-1-ynyl)-1H-pyrazolo[3,4-d]pyrimidin-1-yl)methyl)-3-phenyl-4H-chromen-4-one]"
210 to 212 °C,,,< 50%,,"CC(c1oc2ccccc2c(=O)c1-c1ccc(F)cc1)n1cnc2c(N)ncnc21 (stereo not drawn) [Example 39, 2-(1-(6-Amino-9H-purin-9-yl)ethyl)-3-(4-fluorophenyl)-4H-chromen-4-one]"
225 to 229 °C,,,< 50%,,"Cl.O=c1c(-c2ccc(F)cc2)c(CN2CCOCC2)oc2ccccc12 [Example 18a, 3-(4-fluorophenyl)-2-(morpholinomethyl)-4H-chromen-4-one hydrochloride]"
260 to 262 °C,,,50 to 100%,< 250 nM,"Nc1ncnc2c1c(-c1cc(O)cc(F)c1)nn2Cc1oc2ccccc2c(=O)c1-c1ccccc1 [Example 66a, 2-((4-amino-3-(3-fluoro-5-hydroxyphenyl)-1H-pyrazolo[3,4-d]pyrimidin-1-yl)methyl)-3-phenyl-4H-chromen-4-one]"
102 to 107 °C,,,< 50%,,"CCC(c1oc2ccccc2c(=O)c1-c1cccc(F)c1)n1cnc2c(N)ncnc21 (stereo not drawn) [Example 36, 2-(1-(6-amino-9H-purin-9-yl)propyl)-3-(3-fluorophenyl)-4H-chromen-4-one]"
155 to 158 °C,,,< 50%,,"O=c1c(-c2ccccc2)c(CNc2ncnc3[nH]cnc23)oc2ccccc12 [Example 43, 2-((9H-purin-6-ylamino)methyl)-3-phenyl-4H-chromen-4-one]"
224 to 227 °C,< 50%,,,,"Nc1ncnc2c1ncn2Cc1oc2ccccc2c(=O)c1-c1cccc(F)c1 [Example 89, 2-((6-amino-9H-purin-9-yl)methyl)-3-(3-fluorophenyl)-4H-chromen-4-one]"
175 to 178 °C,,,< 50%,,"COc1cccc(-c2nn(Cc3oc4ccccc4c(=O)c3-c3cccc(F)c3)c3ncnc(N)c23)c1 [Example 54, 2-((4-amino-3-(3-methoxyphenyl)-1H-pyrazolo[3,4-d]pyrimidin-1-yl)methyl)-3-(3-fluorophenyl)-4H-chromen-4-one]"
244 to 247 °C,50 to 100%,,,,"CC(c1oc2ccccc2c(=O)c1-c1cccc(F)c1)n1nc(-c2ccc(O)cc2)c2c(N)ncnc21 (stereo not drawn) [Example 88a, 2-(1-(4-amino-3-(4-hydroxyphenyl)-1H-pyrazolo[3,4-d]pyrimidin-1-yl)ethyl)-3-(3-fluorophenyl)-4H-chromen-4-one]"
231 to 233 °C,,,< 50%,,"Nc1ncnc2c1ncn2Cc1oc2ccc(Br)cc2c(=O)c1-c1ccccc1F [Example 29, 2-((6-Amino-9H-purin-9-yl)methyl)-6-bromo-3-(2-fluorophenyl)-4H-chromen-4-one]"
173 to 175 °C,,,< 50%,,"Nc1ncnc2c1ncn2Cc1oc2ccccc2c(=O)c1-c1ccccc1 [Example 3, 2-[(6-Amino-9H-purin-9-yl)methyl]-3-phenyl-4H-chromen-4-one]"

# — US9421209B2, “Kinase modulators” (Rhizen Pharmaceuticals SA, priority 2009, dated 2016)
